For 54 compounds, EC50 results are on record in BindingDB's records for doi:10.7270/Q2251GJ9 (The Scripps Research Institute Molecular Screening Center, 2007).

Structures are written as SMILES. Where a name gives a salt, the structure may show the parent alone.

Chain of Sphingosine 1-phosphate receptor 1 (P21453 whole entry): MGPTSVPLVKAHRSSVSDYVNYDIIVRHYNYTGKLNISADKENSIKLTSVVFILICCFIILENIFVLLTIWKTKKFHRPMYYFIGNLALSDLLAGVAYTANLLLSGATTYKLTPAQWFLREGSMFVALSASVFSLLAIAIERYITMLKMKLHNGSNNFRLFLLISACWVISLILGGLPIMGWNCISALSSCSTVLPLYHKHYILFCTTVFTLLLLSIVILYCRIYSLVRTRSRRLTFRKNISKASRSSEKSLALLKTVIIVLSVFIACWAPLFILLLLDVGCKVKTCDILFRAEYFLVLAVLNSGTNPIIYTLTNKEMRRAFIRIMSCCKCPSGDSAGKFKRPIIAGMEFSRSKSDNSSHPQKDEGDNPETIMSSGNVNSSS

One test concerns the target Sphingosine 1-phosphate receptor 1 (Homo sapiens, UniProt P21453). The test is described as follows: S1P1 receptor agonists, dose response, cell-based, agonist mode, 60K MLSMR set (AID 468).
Conditions: not given
In the case of `CC(C)N1C(=O)CCC1C(=O)N1CCC(Cc2ccccc2)CC1` (centres undefined) [5-(4-benzylpiperidine-1-carbonyl)-1-isopropyl-2-pyrrolidone], the EC50 (as a rule, the concentration needed to bring the measured effect to its halfway point) was greater than 95 µM.
Still for that read-out and setting: for `COCC(=O)Nc1cccc(C(F)(F)F)c1` [2-methoxy-N-[3-(trifluoromethyl)phenyl]acetamide] the value was greater than 95 µM; for `COC(=O)C1=CN(CCCN2CCCC2=O)C=C(C(=O)OC)C1c1ccccc1C(F)(F)F`, greater than 95 µM.
Turning to `COc1ccccc1-n1nnnc1SCc1cc2c(cc1Br)OCO2` [5-[(6-bromanyl-1,3-benzodioxol-5-yl)methylsulfanyl]-1-(2-methoxyphenyl)-1,2,3,4-tetrazole], the EC50 is greater than 10 µM.
As for `COC(=O)c1cc(NCc2ccccc2F)ccc1N1CCOCC1` [5-[(2-fluorobenzyl)amino]-2-morpholino-benzoic acid methyl ester], a half-maximal effect (EC50) was put at 8.9 µM.
`Cc1ccc(C(C)C)c(OCc2ccc(-c3nnco3)cc2)c1` [2-[4-[(2-isopropyl-5-methyl-phenoxy)methyl]phenyl]-1,3,4-oxadiazole] showed an EC50 of 2.43 µM.
The same measure, in the same setting: as for `CN(C)S(=O)(=O)c1ccc(C(=O)Nc2nc(-c3cccs3)cs2)cc1` [4-(dimethylsulfamoyl)-N-(4-thiophen-2-yl-1,3-thiazol-2-yl)benzamide], the figure is greater than 10 µM; as for `Cc1ccc(NC(=O)c2cc(-c3ccco3)on2)cc1C` [MLS000087214], 4.99 µM.
Same read-out and setting: as for `O=C(Cc1c[nH]c2ccccc12)N1CCc2ccccc21`, the figure is 9.43 µM.
`CC(C)(C)OC(=O)N[C@@H](Cc1ccccc1)c1nnc(S(=O)(=O)Cc2ccccc2)o1` [SMR000047857] registered an EC50 of 4.1 µM.
Same read-out and setting: for `CC(C)c1ccc(OCc2nc(-c3ccccn3)no2)c(Br)c1` [5-[(2-bromanyl-4-propan-2-yl-phenoxy)methyl]-3-pyridin-2-yl-1,2,4-oxadiazole] the value was 4.45 µM; for `O=C(CSc1ncnc2c1oc1ccccc12)N1CCCc2ccccc21` [2-(4-benzofuro[3,2-d]pyrimidinylthio)-1-(3,4-dihydro-2H-quinolin-1-yl)ethanone], greater than 3 µM.
In turn, `CCOC(=O)/C=C/S(=O)(=O)c1ccc(NC(C)=O)cc1` registered an EC50 greater than 3 µM.
The same measure, in the same setting: as for `Cn1c(-c2c(N)n(C3CCCC3)c3nc4ccccc4nc23)nc2ccccc21` [1-cyclopentyl-3-(1-methyl-2-benzimidazolyl)-2-pyrrolo[3,2-b]quinoxalinamine], the figure is 1.15 µM; as for `CC(=O)Oc1ccc(-n2c(O)c3c(c2O)C2(C)C=CC3(C)O2)cc1` [MLS000107813], 11.8 µM; as for `CC(C)(C)NC(=O)CSc1ncnc2c1nnn2Cc1ccccc1Cl` [MLS000034488], 9.4 µM.
For `Cc1cc(C(=O)CC#N)c(C)n1-c1ccc(OC(F)F)cc1` [3-[1-[4-(difluoromethoxy)phenyl]-2,5-dimethyl-3-pyrrolyl]-3-oxopropanenitrile], the EC50 was greater than 10 µM.
Compound `O=S1(=O)Nc2c(ccc3cccnc23)-c2ccccc21` [5H-quinolino[8,7-c][1,2]benzothiazine 6,6-dioxide] returned an EC50 of 3.95 µM.
Still for that read-out and setting: as for `COc1ccccc1Oc1ccc2c(c1)C(=O)N(c1ccc(O)cc1)C2=O` [2-(4-hydroxyphenyl)-5-(2-methoxyphenoxy)isoindole-1,3-dione], the figure is 0.217 µM; as for `Cc1nc2ccccc2c2oc(C(=O)NCC3COc4ccccc4O3)cc12` (centres undefined) [MLS000118430], 8.06 µM; as for `CCCCc1ccc(C2C(C#N)C(=N)SC(=N)C2C#N)s1` (centres undefined) [2,6-bis(azanyl)-4-(5-butylthiophen-2-yl)-4H-thiopyran-3,5-dicarbonitrile], 13.4 µM.
`Cc1ccc2c(c1)[nH]c1c(N3CCN(Cc4ccccc4)CC3)ncnc12` [SMR000044826] returned an EC50 of 3.27 µM.
On the same count and under the same terms, as for `Cc1cc(C(=O)CSc2nnc(-c3ccco3)o2)c(C)n1-c1ccc2c(c1)OCCO2` [1-[1-(2,3-dihydro-1,4-benzodioxin-6-yl)-2,5-dimethyl-3-pyrrolyl]-2-[[5-(2-furanyl)-1,3,4-oxadiazol-2-yl]thio]ethanone], the figure is 7.58 µM; as for `Cc1nnc(SCC(=O)N2CCC(c3noc4ccc(F)cc34)CC2)s1` [1-[4-(5-fluoranyl-1,2-benzoxazol-3-yl)piperidin-1-yl]-2-[(5-methyl-1,3,4-thiadiazol-2-yl)sulfanyl]ethanone], 4.27 µM.
Compound `Cc1ccc(-c2n[nH]c(=S)n2C)cc1` showed an EC50 greater than 95 µM.
The same measure, in the same setting: as for `O=C(c1cc(-c2ccccc2)on1)N1CCN(Cc2ccc3c(c2)OCO3)CC1` [(5-phenylisoxazol-3-yl)-(4-piperonylpiperazino)methanone], the figure is greater than 30 µM; as for `Cc1nc(NC(C)c2ccccc2)c2oc3ccccc3c2n1` (centres undefined) [(2-methylbenzofuro[3,2-d]pyrimidin-4-yl)-(1-phenylethyl)amine], 6.97 µM.
For `Cc1cc(C=Nn2cnnc2)c(C)n1-c1ccc(OCc2ccc(F)cc2)cc1` [MLS000112167], a half-maximal response (EC50) required 0.552 µM.
Same read-out and setting: for `CCOc1ccc(Cc2nc(-c3nonc3N)no2)cc1OCC` [4-[5-(3,4-diethoxybenzyl)-1,2,4-oxadiazol-3-yl]-1,2,5-oxadiazol-3-amine] the value was 9.19 µM.
Take `CCC(NC(C)c1ccccc1)=C1C(=O)N(C)C(=O)N(C)C1=O` (centres undefined) [SMR000043429]: the EC50 amounted to 13.6 µM.
For the compound `Cc1cc(C(=O)CSc2nnc(-c3cccnc3)n2-c2ccccc2F)c(C)n1C` [SMR000064090], the EC50 was determined as 0.817 µM.
Same read-out and setting: for `COc1ccc(-c2cn3c(C)c(C(=O)Nc4ccncc4)sc3n2)cc1` [6-(4-methoxyphenyl)-3-methyl-N-(4-pyridyl)imidazo[2,1-b]thiazole-2-carboxamide] the value was greater than 10 µM.
On the same count and under the same terms, as for `O=C(CCN1CCc2ccccc2CC1)c1ccc2c(c1)OCCO2` [1-(2,3-dihydro-1,4-benzodioxin-6-yl)-3-(1,2,4,5-tetrahydro-3-benzazepin-3-yl)-1-propanone;hydrochloride], the figure is 10.5 µM; as for `CCCn1c(NC(=O)c2cccc(S(=O)(=O)N3CCCC3)c2)nc2ccccc21` [MLS000057540], 8.82 µM.
Same read-out and setting: as for `Cc1cccc(N2CCN(C(=O)CSCc3c(C)noc3C)CC2)c1C` [2-[(3,5-dimethyl-1,2-oxazol-4-yl)methylsulfanyl]-1-[4-(2,3-dimethylphenyl)piperazin-1-yl]ethanone], the figure is 4.52 µM; as for `CCN(C(=O)C1CCCCC1)c1nnc(-c2cccnc2)s1` [Cyclohexanecarboxylic acid ethyl-(5-pyridin-3-yl-[1,3,4]thiadiazol-2-yl)-amide], 2.13 µM; as for `Cc1ccccc1CS(=O)(=O)c1nnc([C@H](CC(C)C)NC(=O)OC(C)(C)C)o1` [SMR000044673], 7.51 µM.
`COc1ccc(-c2noc(-c3cc(C)cc(C)c3)n2)cc1OC` [3-(3,4-dimethoxyphenyl)-5-(3,5-dimethylphenyl)-1,2,4-oxadiazole]: the midpoint of the response, the EC50, lay at 1.23 µM.

Staying with this test, now noted: inactive by the depositor's call.
`CCOC(=O)c1oc2ccc(S(=O)(=O)n3nc(-c4ccc(OC)cc4)cc3N)cc2c1C` [5-[5-amino-3-(4-methoxyphenyl)pyrazol-1-yl]sulfonyl-3-methyl-coumarilic acid ethyl ester] registered an EC50 of 30.4 µM.
Compound `CC(C)C(c1nnnn1Cc1ccccc1)N(Cc1ccco1)Cc1cccs1` (centres undefined) [1-(1-benzyltetrazol-5-yl)-N-(furan-2-ylmethyl)-2-methyl-N-(thiophen-2-ylmethyl)propan-1-amine] had an EC50 of 51.2 µM.
As to `CCOC(=O)C1CCN(c2ncnc3c2oc2ccccc23)CC1` [1-(4-benzofuro[3,2-d]pyrimidinyl)-4-piperidinecarboxylic acid ethyl ester], the EC50 came to 12 µM.
`CCCn1c(CN2CCN(c3cccc(Cl)c3)CC2)nc2c1c(=O)n(C)c(=O)n2C` [8-[[4-(3-chlorophenyl)-1-piperazinyl]methyl]-1,3-dimethyl-7-propylpurine-2,6-dione] yielded an EC50 of 20.3 µM.
The same measure, in the same setting: for `O=S(=O)(CCSc1ccccn1)c1nc2ccccc2s1` [2-(2-pyridin-2-ylsulfanylethylsulfonyl)-1,3-benzothiazole] the value was 10.4 µM.
Still for that read-out and setting: for `COc1ccc(-c2nc(-c3cccc(C(F)(F)F)c3)no2)cc1OC` [5-(3,4-dimethoxyphenyl)-3-[3-(trifluoromethyl)phenyl]-1,2,4-oxadiazole] the value was 22.3 µM; for `CC(=O)Nc1ccc(S(=O)(=O)N2CCN(c3cccc(C)c3C)CC2)cc1` [MLS000115810], 15.4 µM; for `CC(=O)N1C=CN(C(C)=O)C(c2cn(C)c3ccccc23)C1c1cn(C)c2ccccc12` (centres undefined) [1-[4-acetyl-2,3-bis(1-methyl-3-indolyl)-2,3-dihydropyrazin-1-yl]ethanone], 26.2 µM.
`CC1CCCC(C)N1C(=O)CN1CCN(c2nc(-c3ccc(F)cc3)cs2)CC1` (centres undefined) [1-(2,6-Dimethyl-piperidin-1-yl)-2-{4-[4-(4-fluoro-phenyl)-thiazol-2-yl]-piperazin-1-yl}-ethanone] yielded an EC50 of 12.7 µM.
Same read-out and setting: as for `CCn1c(NC(=O)c2cccc(Cn3cc(Cl)cn3)c2)nc2ccccc21` [3-[(4-chloranylpyrazol-1-yl)methyl]-N-(1-ethylbenzimidazol-2-yl)benzamide], the figure is 14 µM; as for `COc1ccc(-c2cc(C(=O)NC3CCCC3)no2)cc1OC` [MLS000087117], 15.8 µM; as for `COc1ccc(S(=O)(=O)Cc2ccc(C(=O)N3CCN(c4cccc(C)c4C)CC3)o2)cc1` [MLS000120226], 14 µM.
The compound `CCc1ccc2c(COC(=O)c3n[nH]c4ccccc34)cc(=O)oc2c1` [(7-ethyl-2-oxochromen-4-yl)methyl 1H-indazole-3-carboxylate] displayed a concentration giving a half-maximal response (EC50) of 10.6 µM.
Still for that read-out and setting: as for `Cc1cc(N2CCN(C(c3ccccc3)c3ccccc3)CC2)n2ncnc2n1` [7-(4-benzhydrylpiperazin-1-yl)-5-methyl-[1,2,4]triazolo[1,5-a]pyrimidine], the figure is 14.5 µM.
The compound `CCN(CC)c1ccc(-n2c(C)c(C(C)=O)c(C(C)=O)c2C)cc1` [1-[1-[4-(diethylamino)phenyl]-4-ethanoyl-2,5-dimethyl-pyrrol-3-yl]ethanone] displayed an EC50 of 11.4 µM.
On the same count and under the same terms, as for `Cc1cc(C(=O)COC(=O)c2csc3c2CCCC3)c(C)n1C` [4,5,6,7-tetrahydro-1-benzothiophene-3-carboxylic acid [2-oxo-2-(1,2,5-trimethyl-3-pyrrolyl)ethyl] ester], the figure is 18.6 µM.
